Source: patent publication US10856562B2, “Flavor composition and edible compositions containing same” (MARS, INCORPORATED, priority 2013, dated 2020)
“Also recorded” adds a separate entry of the source. Square brackets hold non-standard residues; d marks the D form. Ends that are not written are not given here. pGlu = O=C1CC[C@@H](C(=O)O)N1

Legend:
panelists = assay: Increased salt perception protocol: salt 5 reference (0.35% salt solution) re-tasted after expectoration of test sample; assay type: in vivo, human; details: for Astringent, after-expectoration perception / Bitter, after-expectoration perception / Flinty/Mineral, after-expectoration perception / Metallic, after-expectoration perception / Numbing, after-expectoration perception / Salt, after-expectoration perception (mean salt perception after expectoration) / Sour, after-expectoration perception / Sweet, after-expectoration perception: salt 5 reference re-tasted, mean score; for Level of the aromatics, basic tastes and chemical feeling factors after expectoration with increasing concentration / Salt perception from in-mouth to after expectoration: 0.1 to 40.0/50.0 ppb; for Salt perception after expectoration as the concentration increases: 0.1 to 40.0/50.0 ppb in 0.2% NaCl; for Umami like swelling of lips and tongue, after expectoration: all levels; for Salt perception from in-mouth to after expectoration: all samples
Source text: 1. Each panelist tasted a salt reference (0.35% salt solution) with a reference salt intensity of 5.0 which provided a baseline for each panelist for salt intensity. 2. Each panelist tasted a test sample (0.1 ppb, 0.5 ppb, 1.0 ppb, 10.0 ppb or 40.0 ppb all in 0.2% NaCl solution). Only one sample was tasted per session. 3. Each panelist re-tasted the salt reference (5.0 intensity) and rated it for salt intensity as well as any other basic taste, chemical feeling factor, or aromatic perceived. Thus, any increased salt perception as a result of the test sample would be determined, as well as any other perceptions present. Attribute Perception Protocol • The panelists evaluated each sample using the following procedure • Descriptive Profiles (flavor and chemical feeling factors) of 5 levels of salt enhancing solutions • Individual data was collected for the flavor and chemical feeling factors of the product in-mouth • Increased Salt Perception Protocol • Each panelist tasted salt 5 reference (0.35% salt solution)—to ground themselves on salt intensity of 5.0. • Each panelist tasted the test sample (0.1 ppb, 0.5 ppb, 1.0 ppb, 10.0 ppb or 40.0/50.0 ppb all in 0.2% NaCl solution: only one per session) • Each panelist then re-tasted the salt 5 reference and rated it for salt intensity as well as any other basic taste, chemical feeling factor, or aromatic perceived. This captured any increased salt perception indicated by the test sample as well as any other perceptions present. • Return to Baseline Protocol • After evaluating the sample for salt & other perceptions, panelists re-tasted the salt 5 reference at 1 minute intervals until their perception of the salt 5 saltiness intensity had returned to 5.0. Each panelist recorded their salt intensity at each interval and took qualitative notes on other perceptions seen in aftertaste. Sample Preparation

panel of trained tasters = assay: Saltiness of sodium-reduced pasta sauce with peptides, panel of trained tasters; assay type: in vivo, human
Protocol: Food product compositions were prepared by admixing flavor composition peptide(s) of the present application with food compositions, wherein the level of sodium (NaCl) in the food product compositions was reduced. The level of sodium was reduced by 25%, 50% or 75% compared to food products compositions that were not admixed with flavor composition peptides. The food product compositions comprising the flavor composition peptides were tasted by a panel of trained tasters and the level of saltiness was compared to the control food products.
The peptides pGlu-Val-Leu (identified as “SE-13”), pGlu-Val-Cys (identified as “UE-30”) and pGlu-Val-Val (identified as “SE-17”) were tested in Pasta Sauce. The control pasta sauce comprised 540 mg sodium (NaCl) in a 125 g serving.

## [pGlu]-Val-Leu [SE-13]
panelists; 0.1 ppb in 0.2% NaCl
  Astringent, after-expectoration perception: 0.0
  Bitter, after-expectoration perception: 0.1
  Flinty/Mineral, after-expectoration perception: 0.1
  Metallic, after-expectoration perception: 0.3
  Numbing, after-expectoration perception: 0.0
  Salt, after-expectoration perception (mean salt perception after expectoration): 6.8
  Sour, after-expectoration perception: 0.0
  Sweet, after-expectoration perception: 0.0
panelists
  Level of the aromatics, basic tastes and chemical feeling factors after expectoration with increasing concentration: do not increase
  Salt perception after expectoration as the concentration increases: increases slightly; also recorded: slight increase
  Umami like swelling of lips and tongue, after expectoration: Panelists also experience Umami like swelling of lips and tongue
  Salt perception from in-mouth to after expectoration: increases after expectoration in all samples; also recorded: noticeable increase
panelists; listed as pGlu-Val-Leu
  Salt perception after expectoration as the concentration increases: increased slightly
  Salt perception from in-mouth to after expectoration: increased after expectoration in all samples
panelists; 0.5 ppb in 0.2% NaCl
  Astringent, after-expectoration perception: 0.0
  Bitter, after-expectoration perception: 0.0
  Flinty/Mineral, after-expectoration perception: 0.1
  Metallic, after-expectoration perception: 0.3
  Numbing, after-expectoration perception: 0.1
  Salt, after-expectoration perception (mean salt perception after expectoration): 6.4
  Sour, after-expectoration perception: 0.0
  Sweet, after-expectoration perception: 0.0
panelists; 1.0 ppb in 0.2% NaCl
  Astringent, after-expectoration perception: 0.0
  Bitter, after-expectoration perception: 0.0
  Flinty/Mineral, after-expectoration perception: 0.2
  Metallic, after-expectoration perception: 0.1
  Numbing, after-expectoration perception: 0.0
  Salt, after-expectoration perception (mean salt perception after expectoration): 7.5
  Sour, after-expectoration perception: 0.0
  Sweet, after-expectoration perception: 0.0
panelists; 10.0 ppb in 0.2% NaCl
  Astringent, after-expectoration perception: 0.0
  Bitter, after-expectoration perception: 0.0
  Flinty/Mineral, after-expectoration perception: 0.1
  Metallic, after-expectoration perception: 0.3
  Numbing, after-expectoration perception: 0.0
  Salt, after-expectoration perception (mean salt perception after expectoration): 8.2
  Sour, after-expectoration perception: 0.0
  Sweet, after-expectoration perception: 0.0
panelists; 40.0 ppb in 0.2% NaCl
  Astringent, after-expectoration perception: 0.0
  Bitter, after-expectoration perception: 0.0
  Flinty/Mineral, after-expectoration perception: 0.3
  Metallic, after-expectoration perception: 0.2
  Numbing, after-expectoration perception: 0.0
  Salt, after-expectoration perception (mean salt perception after expectoration): 8.3
  Sour, after-expectoration perception: 0.0
  Sweet, after-expectoration perception: 0.0
Panel of trained tasters; 25% sodium reduction, 10 and 1 ppb, n=4
  Saltiness compared to control at 25% reduction: to control, slightly less salty.
Panel of trained tasters; control 540 mg Na/serving, test 25, 50, 75% reduction, 10 ppb and 1 ppb, n=4
  Saltiness compared to control: Test variables perceived less

## [pGlu]-Val-Val [SE-17]
panelists; 0.1 ppb in 0.2% NaCl
  Astringent, after-expectoration perception: 0.0
  Bitter, after-expectoration perception: 0.0
  Flinty/Mineral, after-expectoration perception: 0.6
  Metallic, after-expectoration perception: 0.0
  Numbing, after-expectoration perception: 0.0
  Salt, after-expectoration perception (mean salt perception after expectoration): 7.3
  Sour, after-expectoration perception: 0.0
  Sweet, after-expectoration perception: 0.0
panelists
  Level of the aromatics, basic tastes and chemical feeling factors after expectoration with increasing concentration: do not increase
  Salt perception after expectoration as the concentration increases: does not increase notably; also recorded: Does not show a notable increase
  Umami like swelling of lips and tongue, after expectoration: Panelists also experience Umami like swelling of lips and tongue
  Salt perception from in-mouth to after expectoration: increases after expectoration (from in-mouth) in all samples; also recorded: noticeable increase
panelists; 0.5 ppb in 0.2% NaCl
  Astringent, after-expectoration perception: 0.0
  Bitter, after-expectoration perception: 0.0
  Flinty/Mineral, after-expectoration perception: 0.7
  Metallic, after-expectoration perception: 0.2
  Numbing, after-expectoration perception: 0.0
  Salt, after-expectoration perception (mean salt perception after expectoration): 8.1
  Sour, after-expectoration perception: 0.0
  Sweet, after-expectoration perception: 0.0
panelists; 1.0 ppb in 0.2% NaCl
  Astringent, after-expectoration perception: 0.0
  Bitter, after-expectoration perception: 0.0
  Flinty/Mineral, after-expectoration perception: 0.5
  Metallic, after-expectoration perception: 0.0
  Numbing, after-expectoration perception: 0.0
  Salt, after-expectoration perception (mean salt perception after expectoration): 7.3
  Sour, after-expectoration perception: 0.0
  Sweet, after-expectoration perception: 0.0
panelists; 10.0 ppb in 0.2% NaCl
  Astringent, after-expectoration perception: 0.0
  Bitter, after-expectoration perception: 0.0
  Flinty/Mineral, after-expectoration perception: 0.3
  Metallic, after-expectoration perception: 0.0
  Numbing, after-expectoration perception: 0.0
  Salt, after-expectoration perception (mean salt perception after expectoration): 7.2
  Sour, after-expectoration perception: 0.0
  Sweet, after-expectoration perception: 0.0
panelists; 50.0 ppb in 0.2% NaCl
  Astringent, after-expectoration perception: 0.0
  Bitter, after-expectoration perception: 0.0
  Flinty/Mineral, after-expectoration perception: 0.4
  Metallic, after-expectoration perception: 0.0
  Numbing, after-expectoration perception: 0.0
  Salt, after-expectoration perception (mean salt perception after expectoration): 7.7
  Sour, after-expectoration perception: 0.0
  Sweet, after-expectoration perception: 0.0
Panel of trained tasters; control 540 mg, test 405 mg Na, SE-13 or SE-17 10 ppb, UE-30 1 ppb, n=4
  Saltiness compared to control: significantly less salty than
Panel of trained tasters; test 405 mg Na, SE-17 10 ppb, UE-30 1 ppb
  Salt enhancement: UE-30 did not provide a big
